From patent publication US6376198B1, “Assay for non-peptide agonists to peptide hormone receptors” (New England Medical Center Hospitals, Inc., priority 1995, dated 2002)
Where a chain is given by its changes, count along the chain named. Entries after “also recorded” stand apart in the source; their conditions may differ.

What was measured:
[1] = target: T1, human CCK-B/gastrin receptor 325L→E mutant (Homo sapiens, UniProt P32239, L325E); assay: Total inositol phosphate production, COS-7 cells expressing constitutively active mutant; format: cell-based; details: for IC50: 325L→E mutant, 95% C.I. in brackets, read-out: 325L→E Mutant IC50(nM) 95% C.I., signaling potency; for intrinsic activity / functional classification: constitutively active 325L→E mutant
T1 construct: expressed in transfected cells; host or cells: COS-7
T1 sequence (P32239 1-447 L325E): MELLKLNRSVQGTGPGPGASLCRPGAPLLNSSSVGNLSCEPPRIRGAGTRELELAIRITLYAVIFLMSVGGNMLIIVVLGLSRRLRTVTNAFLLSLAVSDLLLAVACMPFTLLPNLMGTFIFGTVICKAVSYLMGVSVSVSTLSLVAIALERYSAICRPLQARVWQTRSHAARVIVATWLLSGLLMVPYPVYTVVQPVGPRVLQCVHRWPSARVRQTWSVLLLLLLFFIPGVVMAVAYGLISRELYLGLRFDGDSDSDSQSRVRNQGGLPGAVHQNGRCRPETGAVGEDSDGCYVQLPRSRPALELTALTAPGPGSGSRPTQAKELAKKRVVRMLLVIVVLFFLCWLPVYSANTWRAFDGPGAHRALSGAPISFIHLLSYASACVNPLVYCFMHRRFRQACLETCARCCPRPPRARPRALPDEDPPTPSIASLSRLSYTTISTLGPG

[2] = target: T2, human CCK-B/gastrin receptor (wild-type) (Homo sapiens, UniProt P32239); assay: Total inositol phosphate production, COS-7 cells expressing wild-type receptor; format: cell-based; details: for IC50: 95% C.I. in brackets, read-out: Wild-type receptor IC50(nM) 95% C.I., signaling potency
T2 construct: expressed in transfected cells; host or cells: COS-7
T2 sequence (P32239 1-447): T1 sequence (P32239 1-447 L325E) with E325L

[3] = target: T3, mutant human CCK-A receptor pMHA35 (Homo sapiens, UniProt P32238, E138Q); assay: Intrinsic activity at mutant CCK-A receptor pMHA35 (138-ERY-140 to QRY); format: cell-based; details: basal signaling not increased
T3 construct: expressed in transfected cells; host or cells: COS-7 (inferred from the general inositol phosphate method)
T3 sequence (P32238 1-428 E138Q): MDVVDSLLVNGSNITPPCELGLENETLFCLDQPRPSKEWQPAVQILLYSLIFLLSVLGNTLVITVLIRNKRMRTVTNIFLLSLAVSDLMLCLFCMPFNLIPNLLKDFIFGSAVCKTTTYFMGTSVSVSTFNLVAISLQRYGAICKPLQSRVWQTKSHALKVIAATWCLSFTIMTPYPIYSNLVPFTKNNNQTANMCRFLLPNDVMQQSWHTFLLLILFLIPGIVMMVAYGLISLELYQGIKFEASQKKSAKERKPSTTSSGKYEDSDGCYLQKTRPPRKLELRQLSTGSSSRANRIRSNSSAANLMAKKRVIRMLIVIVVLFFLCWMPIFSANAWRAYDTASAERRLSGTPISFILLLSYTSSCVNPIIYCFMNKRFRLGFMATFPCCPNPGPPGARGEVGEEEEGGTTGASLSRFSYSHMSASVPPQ
Excerpt: An example is given of a mutant human CCK-A receptor that enhances the intrinsic activity of the partial ‘peptoid’ agonist PD 135,158, yet causes no apparent increase in agonist-independent basal receptor activity, is the mutant CCK-A receptor pMHA35. pMHA35 was made by replacing amino acids 138-ERY-140 of the human wild-type CCK-A receptor with QRY in the vector pcDNAI. (See FIG. 2 for an illustration of the wild-type CCK-A receptor amino acid sequence.)
This method, based on alignment, was employed to construct a CCK-A mutant receptor. A multiple alignment map was made which included the human and rat CCK-A sequences, the mastomys, rat, human, and canine CCK-B/gastrin receptor, and a Xenopus CCK-A/CCK-B intermediate receptor (CCK-XL; FIG. 2). Based on this map, conserved amino acids 138-ERY-140 of the CCK-A receptor were replaced with amino acids QRY, based on a known constitutively active rhodopsin mutant with enhanced transducin activation (Arnis et al., J. Biol. Chem., 269:23879-81, 1994). The altered amino acid residues are positioned in transmembrane domain III and flank the second intracellular loop.

[4] = target: T1, human CCK-B/gastrin receptor 325L→E mutant; assay: 125I-CCK-8 competition binding, COS-7 cells expressing constitutively active mutant; details: read-out: 325L→E Mutant Ki(nM), 125I CCK-8 binding affinity
Experimental: (§1) The binding of a ligand to a CCK receptor, e.g., the CCK-A or the CCK-B/gastrin receptor, can be measured according to the following example. In this example, the binding affinity of a ligand to the human CCK-B/gastrin receptor is measured.
Twenty-four hours after transfection cells were split into 24-well dishes (2×10^4 cells/well) (Costar). After an additional 24 hours, competition binding experiments were performed in Hank's buffer supplemented with 25 mM phenylmethylsulfonyl fluoride (PMSF). […] Equilibrium binding occurred after incubation for 80 min. at 37° C. Cell monolayers were then washed three times, hydrolyzed in 1 N NaOH, and the amount of radioactivity to the receptor was quantified. […] All binding experiments were repeated three to five times.
(§2) The competition data were analyzed using computer software which is specifically designed for the purpose of radioligand binding assays (Inplot 4.0, GraphPad, San Diego, Calif.).

[5] = target: T2, human CCK-B/gastrin receptor (wild-type); assay: 125I-CCK-8 competition binding, COS-7 cells expressing wild-type receptor; details: for Ratio (Wild-type/Mutant) of Ki: binding affinities; for Ki: wild-type receptor, read-out: Wild-type receptor Ki(nM), 125I CCK-8 binding affinity
Experimental: as §1
Twenty-four hours after transfection cells were split into 24-well dishes (2×10^4 cells/well) (Costar). After an additional 24 hours, competition binding experiments were performed in Hank's buffer supplemented with 25 mM phenylmethylsulfonyl fluoride (PMSF). […] Equilibrium binding occurred after incubation for 80 min. at 37° C. Cell monolayers were then washed three times, hydrolyzed in 1 N NaOH, and the amount of radioactivity to the receptor was quantified.
as §2

rat CCK-A = details: single experiment
[6] = target: human wild-type CCK-B receptor (Homo sapiens, UniProt P32239); details: 10^-7 M
Experimental: Measurement of [Ca^2+]: Forty-eight hours after transfection with hCCKB-pcDNAI, COS-7 cells were loaded with the Ca^2+ fluorophore fura-2 in modified Krebs-Ringer bicarbonate buffer. […] Extracellular calcium can be chelated with EGTA (2.5 mM) to confirm that a gastrin-induced increase in [Ca^2+] originates primarily from intracellular [Ca^2+] pools.

Xenopus CCK receptor = Xenopus CCK receptor (Xenopus laevis, UniProt P70031); details: single experiment
Experimental: COS-7 cells transfected with receptor cDNA-pcDNAI were cultured in inositol-free, serum-free Dulbecco's modified Eagle's medium (DMEM, GIBCO), supplemented with 3 μCi/ml ^3 H-myo-inositol (NEN, 45-80 Ci/mmol), for 18 hours prior to analysis. The cells were then washed twice with DMEM/10 mM LiCl2 and twice with phosphate-buffered saline/10 mM LiCl2. After stimulation with putative agonists in phosphate-buffered saline 10/mM LiCl2 for 30 minutes at 37° C., cells were scraped in ice-cold methanol. […] The upper phase was analyzed for inositol phosphates by strong anion exchange chromatography, using Dowex 1-X8 columns (BIORAD) and differential elution with water/60 mM ammonium fornate/2 M ammonium fornate. Eluted radioactivity was measured by liquid scintillation counting, and inositol phosphate content was expressed as a percentage of total ^3H-radioactivity applied to the columns.
In FIG. 11, basal levels of inositol phosphate production were measured for human CCK-A hCCK-A), human CCK-B (hCCK-B), dog CCK-B (dCCK-B), mouse CCK-B (mCCK-B), and the mastomys CCK receptor (FIG. 11, part A), and expressed relative to the basal level of hCCK-B.
Single experiments were also performed for the rat CCK-B/gastrin receptor and for the related Xenopus CCK receptor (Table 2).

Chain of Xenopus CCK receptor (P70031 whole entry): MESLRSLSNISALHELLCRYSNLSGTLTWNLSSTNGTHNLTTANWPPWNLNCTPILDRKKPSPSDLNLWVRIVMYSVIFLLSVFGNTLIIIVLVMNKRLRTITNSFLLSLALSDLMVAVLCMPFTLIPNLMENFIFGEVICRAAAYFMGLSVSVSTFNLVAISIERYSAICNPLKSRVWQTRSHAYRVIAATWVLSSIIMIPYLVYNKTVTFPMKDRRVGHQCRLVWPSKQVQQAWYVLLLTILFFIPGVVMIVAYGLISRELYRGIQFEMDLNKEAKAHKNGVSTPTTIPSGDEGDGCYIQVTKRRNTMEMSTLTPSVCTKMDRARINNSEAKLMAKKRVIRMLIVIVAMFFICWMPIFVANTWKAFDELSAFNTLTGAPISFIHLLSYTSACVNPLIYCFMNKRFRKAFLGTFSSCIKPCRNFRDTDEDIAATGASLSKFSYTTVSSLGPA
Chain of human wild-type CCK-B receptor (P32239 whole entry): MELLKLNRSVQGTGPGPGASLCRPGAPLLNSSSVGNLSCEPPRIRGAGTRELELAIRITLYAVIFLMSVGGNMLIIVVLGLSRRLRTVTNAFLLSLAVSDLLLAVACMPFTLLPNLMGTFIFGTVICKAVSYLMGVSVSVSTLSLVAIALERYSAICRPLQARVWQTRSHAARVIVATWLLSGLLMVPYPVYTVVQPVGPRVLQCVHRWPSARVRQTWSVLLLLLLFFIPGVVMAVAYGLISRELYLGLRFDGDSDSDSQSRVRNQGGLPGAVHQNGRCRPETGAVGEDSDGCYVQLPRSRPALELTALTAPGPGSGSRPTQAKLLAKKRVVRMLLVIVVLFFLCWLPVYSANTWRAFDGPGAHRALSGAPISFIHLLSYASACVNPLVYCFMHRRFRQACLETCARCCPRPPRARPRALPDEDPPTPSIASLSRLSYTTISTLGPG

Row | Compound | intrinsic activity / functional classification ([2]; wild-type receptor) | intrinsic activity / functional classification [1] | Ki [4] | Ratio (Wild-type/Mutant) of Ki [5] | Ki [5] | other results
1 | Cc1cccc(NC(=O)N[C@@H]2N=C(c3ccccc3)c3ccccc3N(C)C2=O)c1 [L-365,260] | barely detectable, yet significant, increase in inositol phosphate production |  |  |  |  | efficacy compared to the full agonist CCK-8s (inositol phosphate) ([1]; 325L→E constitutively active mutant): 62%
2 | CC1(C)[C@H]2CC[C@@]1(C)[C@H](OC(=O)N[C@](C)(Cc1c[nH]c3ccccc13)C(=O)NC[C@H](NC(=O)CCC(=O)O)c1ccccc1)C2 [PD 135,158] | partial agonists | almost full agonists | 1.01 ± 0.19 nM | 2.23 | 2.25 ± 0.61 nM | intrinsic activity at mutant versus wild-type CCK-A receptor [3]: significantly increased; IC50 [1]: 1.01 nM; Ratio (Wild-type/Mutant) of signaling potencies [2]: 1.04; IC50 ([2]; wild-type receptor): 1.05 nM
3 | C[C@](Cc1c[nH]c2ccccc12)(NC(=O)OC1C2CC3CC(C2)CC1C3)C(=O)NC[C@H](NC(=O)/C=C/C(=O)O)c1ccccc1 (stereo partly drawn) [PD 136,450] | partial agonists | almost full agonists | 0.59 ± 0.12 nM | 1.68 | 0.99 ± 0.1 nM | IC50 [1]: 0.58 nM; Ratio (Wild-type/Mutant) of signaling potencies [2]: 0.62; IC50 ([2]; wild-type receptor): 0.36 nM
4 | Cc1cccc(NC(=O)N[C@@H]2N=C(c3ccccc3)c3ccccc3N(CC(=O)c3ccccc3C)C2=O)c1 [YM022] | almost no intrinsic activity | almost no intrinsic activity; also recorded: weak inverse agonist | 0.08 ± 0.01 nM | 0.88 | 0.07 ± 0.01 nM | pA2, block of CCK-8s induced inositol phosphate production ([1]; constitutively active receptor, agonist CCK-8s): 9.37; pA2, block of L-740,093 S induced inositol phosphate production ([1]; constitutively active receptor, agonist L-740,093 S (FIG. 4)): 9.54; pA2, block of CCK-8s induced inositol phosphate production ([2]; wild-type receptor, agonist CCK-8s): 9.78
5 | CCK-8s |  |  |  |  |  | CCK-8s stimulated (% human basal) inositol phosphate (rat CCK-A): 684 % human basal; change in free cytosolic calcium [Ca2+]i [6]: marked increase in free cytosolic calcium; CCK-8s stimulated (% human basal) inositol phosphate (Xenopus CCK receptor): 442 % human basal
6 | azabicyclo[3.2.2]nonane benzodiazepine [L-740,093 R] |  | reduces the basal activity of the constitutively active receptor almost to wild-type levels | 0.18 ± 0.04 nM | 1.06 | 0.19 ± 0.02 nM | 
7 | azabicyclo[3.2.2]nonane benzodiazepine [L-740,093 S] |  | almost a full agonist | 16 ± 1.4 nM | 1.22 | 19.5 ± 1.5 nM | efficacy compared with CCK-8s (inositol phosphate) ([2]; human wild-type receptor): 25%
